# In PMC10559933 (The Prostate, 2023):
# Values joined by “and” are separate entries in the source; they are usually repeats but may differ in a detail not shown here. Equal entries are not always repeated.
# What was measured:
# thymus = experiment: AHR agonist induced thymus regression in FVB male mice; format: in vivo
# Water solubility = format: physicochemical
# [1] = system: CWR22-RH human prostate cancer PDXs; experiment: In vivo growth of CWR22-RH PDX in castrate NSG mice; design: species or system human xenograft in NSG mice
# [2] = molecular target: T1, Human Aryl Hydrocarbon Receptor (AHR) (Homo sapiens, UniProt P35869); experiment: Cell-based luciferase reporter gene assay driven by AHR-responsive promoter
# T1 sequence (P35869 11-848): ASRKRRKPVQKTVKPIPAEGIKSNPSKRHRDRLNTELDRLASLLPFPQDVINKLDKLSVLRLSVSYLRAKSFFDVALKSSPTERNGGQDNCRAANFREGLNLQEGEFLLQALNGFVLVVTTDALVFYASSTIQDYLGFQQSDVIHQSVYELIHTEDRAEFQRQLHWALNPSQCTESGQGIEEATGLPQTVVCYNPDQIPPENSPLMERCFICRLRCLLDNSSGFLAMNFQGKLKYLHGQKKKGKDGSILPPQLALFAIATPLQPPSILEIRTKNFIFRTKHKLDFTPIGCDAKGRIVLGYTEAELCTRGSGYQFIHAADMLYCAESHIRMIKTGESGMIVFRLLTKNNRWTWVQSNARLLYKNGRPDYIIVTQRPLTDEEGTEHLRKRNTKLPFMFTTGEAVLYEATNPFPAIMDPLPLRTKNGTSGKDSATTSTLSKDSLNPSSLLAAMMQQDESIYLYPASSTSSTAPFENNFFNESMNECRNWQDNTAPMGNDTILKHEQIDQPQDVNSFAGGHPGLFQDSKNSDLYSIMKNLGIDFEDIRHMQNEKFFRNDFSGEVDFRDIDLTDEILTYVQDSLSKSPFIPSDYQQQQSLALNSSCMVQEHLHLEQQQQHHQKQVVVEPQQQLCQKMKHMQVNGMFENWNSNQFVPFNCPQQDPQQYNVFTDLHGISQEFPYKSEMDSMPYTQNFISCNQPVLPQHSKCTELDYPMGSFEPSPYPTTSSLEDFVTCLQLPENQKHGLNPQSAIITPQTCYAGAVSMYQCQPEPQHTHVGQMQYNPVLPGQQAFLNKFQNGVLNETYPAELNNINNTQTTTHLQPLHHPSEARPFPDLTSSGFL
# human AHR = human AHR (Homo sapiens, UniProt P35869); experiment: Photo-affinity label; settings: competitive PAL AHR binding assay
# 68 kinases = experiment: Targeted kinase screen; format: biochemical; settings: 10 μM
# [3] = Serum pharmacokinetics after oral gavage in mice; format: in vivo
# liver Cyp1a1 = experiment: Liver Cyp1a1 induction in mice; format: in vivo; settings: oral, even at 30 mg/kg/d
# nuclear MEF2/HDAC4/NCoR1 = nuclear MEF2/HDAC4/NCoR1 (Homo sapiens, UniProt P56524); experiment: Nuclear NCoR1 immunoprecipitated with MEF-2 in CWR-22Rv1 cells under hypoxia; format: cell-based; settings: discussion summary
# Sequence of nuclear MEF2/HDAC4/NCoR1 (P56524 whole entry): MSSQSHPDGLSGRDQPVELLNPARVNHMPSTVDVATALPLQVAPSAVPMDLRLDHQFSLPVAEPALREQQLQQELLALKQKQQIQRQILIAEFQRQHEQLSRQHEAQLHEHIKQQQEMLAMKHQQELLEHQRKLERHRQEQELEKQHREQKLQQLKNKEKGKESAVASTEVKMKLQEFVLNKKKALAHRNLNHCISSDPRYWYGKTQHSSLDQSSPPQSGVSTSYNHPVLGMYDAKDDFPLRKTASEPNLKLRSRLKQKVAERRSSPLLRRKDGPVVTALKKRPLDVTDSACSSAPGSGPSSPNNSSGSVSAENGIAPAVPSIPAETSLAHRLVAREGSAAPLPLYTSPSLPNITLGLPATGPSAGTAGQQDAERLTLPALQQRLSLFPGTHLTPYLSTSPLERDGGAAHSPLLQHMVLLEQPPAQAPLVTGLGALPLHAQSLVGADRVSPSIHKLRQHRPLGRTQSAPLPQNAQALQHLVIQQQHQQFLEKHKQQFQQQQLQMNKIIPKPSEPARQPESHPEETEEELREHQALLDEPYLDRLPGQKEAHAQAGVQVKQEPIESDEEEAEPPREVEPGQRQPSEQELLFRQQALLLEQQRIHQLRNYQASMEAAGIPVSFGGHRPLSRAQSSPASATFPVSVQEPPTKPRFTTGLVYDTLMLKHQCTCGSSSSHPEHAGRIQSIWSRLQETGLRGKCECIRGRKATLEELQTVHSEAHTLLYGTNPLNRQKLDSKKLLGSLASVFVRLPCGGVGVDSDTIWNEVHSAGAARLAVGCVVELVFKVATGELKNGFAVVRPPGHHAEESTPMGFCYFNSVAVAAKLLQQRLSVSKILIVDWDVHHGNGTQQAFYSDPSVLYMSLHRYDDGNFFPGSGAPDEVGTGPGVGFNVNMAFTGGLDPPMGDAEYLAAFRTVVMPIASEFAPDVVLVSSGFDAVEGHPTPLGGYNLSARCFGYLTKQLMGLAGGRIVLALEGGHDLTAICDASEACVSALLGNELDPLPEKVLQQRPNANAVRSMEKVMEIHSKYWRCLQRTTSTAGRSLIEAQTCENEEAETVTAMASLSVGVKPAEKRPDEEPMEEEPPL
# [4] = system: LvCaP-3 human prostate cancer PDXs; experiment: In vivo growth of LvCaP-3 PDX in castrate mice; design: species or system human xenograft in mice; settings: oral 10 mg/kg/d
# fl-HDAC4 = fl-HDAC4 (Homo sapiens, UniProt P56524); experiment: HDAC4 enzymatic assay with Lys; format: biochemical; settings: Lys(TFA)-AMC substrate
# Sequence of fl-HDAC4 (P56524 whole entry): as above
smiles,measurement,setting,value
COc1cccc2c1c(O)c(C(=O)N(c1ccc(C(F)(F)F)cc1)C1CCCCC1)c(=O)n2C [ESATA-20],thymus regression,"thymus; oral, even at 30 mg/kg/d",lack of induction
same,water solubility,Water solubility,less water soluble than TasQ
same,anti-cancer efficacy,[1]; 10 mg/kg/d oral,same significant maximal anti-cancer efficacy as TasQ
same,serum concentration at which maximal anti-prostate cancer efficacy is produced,[1]; in vivo,< 2 µM
same,fold lower AHR agonism than TasQ,[2]; cell-based AHR-promoter assay,10 fold and ~ 10 fold
same,EC50,"[2]; read-out: AHR agonist EC50, human cell-based luciferase reporter",10 µM
same,fold lower binding affinity than TasQ,human AHR,10 fold
same,change in activity in any of the 68 kinases,68 kinases,< 15%
same,fold lower bioavailability than TasQ,"[3]; 10 mg/kg oral, DMSO/HPCD vehicle",5.5 fold
same,alpha half-life for tissue distribution,"[3]; mouse, in vivo",3 h
same,beta half-life for serum elimination,"[3]; mouse, in vivo",10 to 12 h
same,drug bound to serum proteins,"[3]; mouse, in vivo",> 98%
same,induction of liver Cyp1a1,liver Cyp1a1,lack of induction
same,fold more potent HDAC4 inhibitor (vs TasQ),nuclear MEF2/HDAC4/NCoR1,≥ 5 fold
"c1ccc2c(c1)cc1ccc3cccc4ccc2c1c34 [B(a)P, benzo[a]pyrene]",thymus weight,"thymus; oral 10 mg/kg/d for 14 days, vehicle 72 +/− 3 (>70)",27 ± 8 mg
same,therapeutic efficacy,[4],completely lacks therapeutic efficacy
O=C(c1ccc(C(=O)C(F)(F)F)s1)N1CCn2c(-c3ccccc3)cnc2C1 [TFT-PIP],effect on enzymatic activity,fl-HDAC4,inhibited
